Experimental data reported in ChEMBL document CHEMBL1201862, “PubChem BioAssay data set” (2004).
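Growth conditions: 96-well plates. Treatment: test compound, 48 hours, 5 concentrations. Analysis: linear interpolation between bracketing concentrations; unreached endpoints set to highest concentration. GI50: concentration for 50% inhibition of growth.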 Active and inactive are the calls of the source. Cut-off read from the data, not from the text of the source: active = GI50 up to about 1.1 µM and inactive = higher.

Columns and labels:
Assay in all cases: DTP human tumour cell line panel, 48 h
K562 = system: K562
ACHN = system: ACHN
HCT-116 = system: HCT-116
OVCAR-4 = system: OVCAR-4
NCI-H460 = system: NCI-H460
OVCAR-8 = system: OVCAR-8
SN12C = system: SN12C
TK-10 = system: TK-10
HT-29 = system: HT-29
COLO 205 = system: COLO 205
U-251 = system: U-251
HCT-15 = system: HCT-15
SNB-19 = system: SNB-19
OVCAR-3 = system: OVCAR-3
UO-31 = system: UO-31
EKVX = system: EKVX
SNB-75 = system: SNB-75
MOLT-4 = system: MOLT-4
UACC-62 = system: UACC-62
SK-MEL-5 = system: SK-MEL-5

Row | Compound | GI50 (K562) | GI50 (ACHN) | GI50 (HCT-116) | GI50 (OVCAR-4) | GI50 (NCI-H460) | GI50 (OVCAR-8) | GI50 (SN12C) | GI50 (TK-10) | GI50 (HT-29) | GI50 (COLO 205) | GI50 (U-251) | GI50 (HCT-15) | GI50 (SNB-19) | GI50 (OVCAR-3) | GI50 (UO-31) | GI50 (EKVX) | GI50 (SNB-75) | GI50 (MOLT-4) | GI50 (UACC-62) | GI50 (SK-MEL-5)
1 | O=C(CCCN1CCC(C(O)c2ccc(F)cc2)CC1)c1ccc(F)cc1 (stereo not given) | 39.7 µM (inactive) | 50.6 µM (inactive) | 57 µM (inactive) | 61 µM (inactive) | 57.8 µM (inactive) | 64.7 µM (inactive) | 71.9 µM (inactive) | 41.4 µM (inactive) | 42.3 µM (inactive) | 55.7 µM (inactive) | 55.5 µM (inactive) | 62.2 µM | 60.7 µM (inactive) | 57 µM (inactive) | 23.1 µM (inactive) | 62.1 µM (inactive) | 44.3 µM (inactive) | 54.3 µM (inactive) | 57 µM (inactive) | 46.7 µM (inactive)
2 | CC1(C)OC2OC(COC(=O)C(c3ccccc3)c3ccccc3)C3OC(C)(C)OC3C2O1 (stereo not given) | 4.29 µM (inactive) | 29.7 µM (inactive) | > 10 µM (inactive) | 8.71 µM (inactive) | 4.84 µM (inactive) | 53 µM (inactive) | 90.2 µM (inactive) | > 10 µM (inactive) | 8.79 µM (inactive) | 31 µM (inactive) | > 10 µM (inactive) | 6.73 µM | 66.7 µM (inactive) | > 10 µM (inactive) | 35.5 µM (inactive) | > 10 µM (inactive) | 17.1 µM (inactive) | 5.02 µM (inactive) | 9.27 µM (inactive) | 7.11 µM (inactive)
3 | COc1ccc2nc3cc(Cl)ccc3c(NCCCCCC(=O)NC(COc3ccc4ccc5cccnc5c4n3)COc3ccc4ccc5cccnc5c4n3)c2c1 | 13.5 µM (inactive) | 15.5 µM (inactive) | 8.24 µM (inactive) | 30 µM (inactive) | 2.85 µM (inactive) | 41.2 µM (inactive) | 17.8 µM (inactive) | 18.1 µM (inactive) | 27.9 µM (inactive) | 18.3 µM (inactive) | 13.8 µM (inactive) | 35.3 µM | 45.5 µM (inactive) | 28.5 µM (inactive) | 2.79 µM (inactive) | 24.8 µM (inactive) | 21 µM (inactive) | 0.527 µM (active) | 21.7 µM (inactive) | 16.8 µM (inactive)
4 | CN(C)CC(CO)(CN(C)C)CN(C)C | > 100 µM (inactive) | > 100 µM (inactive) | > 100 µM (inactive) | > 100 µM (inactive) | > 100 µM (inactive) | > 100 µM (inactive) | > 100 µM (inactive) | > 100 µM (inactive) | > 100 µM (inactive) | > 100 µM (inactive) | > 100 µM (inactive) | > 100 µM | > 100 µM (inactive) | > 100 µM (inactive) | > 100 µM (inactive) | > 100 µM (inactive) | > 100 µM (inactive) | > 100 µM (inactive) | > 100 µM (inactive) | > 100 µM (inactive)
5 | OC1C2CCC3C2CC(C(O)(c2ccccc2)c2ccccc2)C13 (stereo not given) | 18.2 µM (inactive) | 33.7 µM (inactive) | 36.1 µM (inactive) | > 100 µM (inactive) | 41.3 µM (inactive) | 93.1 µM (inactive) | 21.9 µM (inactive) | 73.5 µM (inactive) | 74.5 µM (inactive) | 18.5 µM (inactive) | 70.3 µM (inactive) | 31.5 µM | > 100 µM (inactive) | 29.9 µM (inactive) | 67.6 µM (inactive) | 33.8 µM (inactive) | 5.47 µM (inactive) | 35.8 µM (inactive) | 47.5 µM (inactive) | 28.6 µM (inactive)
6 | COc1ccc(Nc2nc(N)c(C(=O)c3c[nH]c4ccccc34)s2)cc1 | 0.397 µM (active) | 5.12 µM (inactive) | 0.92 µM (active) | 5.42 µM (inactive) | 0.942 µM (active) | 2.36 µM (inactive) | 3.61 µM (inactive) | 5.56 µM (inactive) | 0.583 µM (active) | 0.731 µM (active) | 1.58 µM (inactive) | 0.433 µM | 2.82 µM (inactive) | 0.745 µM (active) | 3.52 µM (inactive) | 3.05 µM (inactive) | 1.57 µM (inactive) | 0.478 µM (active) | 5.79 µM (inactive) | 1.3 µM (inactive)
